The values below come from paper PMC9636582 (The Journal of Biological Chemistry, 2022).

In one assay the target is full-length PPARα (Homo sapiens, UniProt Q07869). As to conditions: PPRE luciferase reporter, HEK293 cells, Fig. 1C. For orientation: Reporter assays use an easily measured gene product as a stand-in for the process of interest.
The target of another assay is T1, VP16-PPARα / GAL4-NCoR (Homo sapiens, UniProt Q07869).
T1 construct: expressed in transfected cells; host or cells: HEK293
T1 sequence (Q07869 1-468): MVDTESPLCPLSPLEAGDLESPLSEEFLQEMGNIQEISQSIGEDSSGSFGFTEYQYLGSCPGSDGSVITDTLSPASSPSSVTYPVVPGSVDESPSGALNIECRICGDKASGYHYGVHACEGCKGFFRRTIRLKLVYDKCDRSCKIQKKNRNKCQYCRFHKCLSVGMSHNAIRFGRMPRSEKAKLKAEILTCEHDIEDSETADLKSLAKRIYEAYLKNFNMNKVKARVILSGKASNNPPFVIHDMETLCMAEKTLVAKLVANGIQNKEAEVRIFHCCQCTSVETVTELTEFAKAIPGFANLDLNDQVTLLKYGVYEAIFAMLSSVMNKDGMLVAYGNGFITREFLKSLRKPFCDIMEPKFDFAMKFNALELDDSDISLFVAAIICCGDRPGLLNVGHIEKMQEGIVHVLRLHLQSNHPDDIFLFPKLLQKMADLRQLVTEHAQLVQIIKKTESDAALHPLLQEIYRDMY
Briefly: mammalian two-hybrid assay, VP16-PPARα and corepressor NCoR. In kind it is cell-based. Conditions: 30 μM fatty acids, HEK293 cells, Fig. 3D.

For assay [1], the system named is human intestinal organoids. The assay can be described thus: PPARδ target gene mRNA expression in human intestinal organoids (RT-qPCR). In kind it is cell-based. As to conditions: 1 μM GW1516 or 30 μM fatty acids for 24 h. Background: Quantitative PCR measures a nucleic acid by following its amplification.
The next assay deals with T2, VP16-PPARδ / GAL4-NCoR (Homo sapiens, UniProt Q03181).
T2 construct: expressed in transfected cells; host or cells: HEK293
T2 sequence (Q03181 1-441): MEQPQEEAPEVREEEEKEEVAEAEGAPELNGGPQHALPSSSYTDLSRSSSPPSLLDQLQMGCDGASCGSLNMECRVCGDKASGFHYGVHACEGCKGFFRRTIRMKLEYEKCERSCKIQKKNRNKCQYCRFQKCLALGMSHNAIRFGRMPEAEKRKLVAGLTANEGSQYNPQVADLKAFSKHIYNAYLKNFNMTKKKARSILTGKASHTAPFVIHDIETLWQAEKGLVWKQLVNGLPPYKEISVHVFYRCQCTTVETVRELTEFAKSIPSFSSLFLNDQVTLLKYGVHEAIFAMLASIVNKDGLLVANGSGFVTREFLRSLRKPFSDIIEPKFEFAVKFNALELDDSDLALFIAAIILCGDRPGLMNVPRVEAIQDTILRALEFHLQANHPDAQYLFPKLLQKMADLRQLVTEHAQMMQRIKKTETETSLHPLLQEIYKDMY
Briefly: mammalian two-hybrid assay, VP16-PPARδ and corepressor NCoR. The format is cell-based. As to conditions: 30 μM fatty acids, HEK293 cells, Fig. 3C.

Turning to `CCCCC/C=C\C/C=C\C/C=C\CCCCC(=O)O` [GLA, γ-linolenic acid, reference compound], the “transactivation of full-length PPARα (in words)” value at full-length PPARα was “activated almost equally”.

`CCCCCC(O)CCC=CCC=CCCCCC(=O)O` (stereo not drawn) [γHYD, 13-hydroxy-cis-6,cis-9-octadecadienoic acid]: on VP16-PPARα / GAL4-NCoR, the “interaction between PPARα and corepressor NCoR” value is “reduced the interaction”. For the same molecule, the “expression of PPARδ target genes (CPT1A, HMGCS2, PDK4, ACSL1)” value in assay [1] is on record as “increased the expression of PPARδ target genes”. Also, the “interaction between PPARδ and corepressor NCoR” value on VP16-PPARδ / GAL4-NCoR is recorded as “reduced the interaction”.

Turning to `CCCCCC(=O)CCC=CCC=CCCCCC(=O)O` [γKetoD, 13-oxo-cis-6,cis-9-octadecadienoic acid], the “interaction between PPARα and corepressor NCoR” value on VP16-PPARα / GAL4-NCoR is listed as “reduced the interaction”. In assay [1], the “expression of PPARδ target genes (CPT1A, HMGCS2, PDK4, ACSL1)” value is on record as “increased the expression of PPARδ target genes”. Besides, the “interaction between PPARδ and corepressor NCoR” value at VP16-PPARδ / GAL4-NCoR is recorded as “reduced the interaction”.
